Counter-ions that a name gives are not always drawn.
system: ACHN cell line; assay: drug screen of the SelleckChem kinase inhibitor library with and without 5 uM SU-329, Cell-Titer Glo after 5 days; type: cell-based; conditions: kinase inhibitor at 200 nM with and without 5 uM SU329; ACHN cell line; 5 days; Cell-Titer Glo

SMILES | log2fc
CC(C)n1nc(-c2ccc3oc(N)nc3c2)c2c(N)ncnc21 [INK 128 (MLN0128)] | −0.2018
Oc1ccc2ccccc2c1SSc1c(O)ccc2ccccc12 [IPA-3] | 0.5168
C=CC(=O)N1CCC[C@@H](n2nc(-c3ccc(Oc4ccccc4)cc3)c3c(N)ncnc32)C1 [Ibrutinib (PCI-32765)] | 1.289
C#Cc1cccc(Nc2ncnc3cc4c(cc23)OCCOCCOCCO4)c1 [Icotinib] | 0.1182
CC[C@H](Nc1ncnc2[nH]cnc12)c1nc2cccc(F)c2c(=O)n1-c1ccccc1 [Idelalisib (CAL-101, GS-1101)] | 0.09838
Cc1ccc(NC(=O)c2ccc(CN3CCN(C)CC3)cc2)cc1Nc1nccc(-c2cccnc2)n1 [Imatinib Mesylate (STI571), imatinib, reference compound] | 0.1536
O=C1Nc2ccccc2/C1=C1/Nc2ccccc2C1=O [Indirubin] | −1.247
CC(C)NC[C@@H](C(=O)N1CCN(c2ncnc3c2[C@H](C)C[C@H]3O)CC1)c1ccc(Cl)cc1 [Ipatasertib (GDC-0068)] | −0.5082
Nc1nc(Nc2ccc(S(N)(=O)=O)cc2)nn1C(=O)c1c(F)cccc1F [JNJ-7706621] | 0.3857
Cn1cc(-c2ccc3nnc(C(F)(F)c4ccc5ncccc5c4)n3n2)cn1 [JNJ-38877605] | 0.02907
N#Cc1c(NC(=O)c2cccc3ccccc23)sc2c1CCCC2 [JNK Inhibitor IX] | 0.1814
Cc1cc(NC(=O)c2cccc(NC(=O)/C=C/CN(C)C)c2)ccc1Nc1nccc(-c2cccnc2)n1 [JNK-IN-8] | 0.5696
COc1ccc(S(=O)(=O)N(CCO)c2ccccc2CN(C)C/C=C/c2ccc(Cl)cc2)cc1.O=P(O)(O)O [KN-93 Phosphate] | 0.02491
CCCNC(=O)Nc1ccc(Oc2ncnc3cc(OC)c(OC)cc23)cc1Cl [KRN 633] | 0.02524
O=c1cc(-c2cccc3c2Sc2ccccc2S3)oc(N2CCOCC2)c1 [KU-55933 (ATM Kinase Inhibitor)] | 0.3053
C[C@@H]1CN(CC(=O)Nc2ccc3c(c2)Cc2cccc(-c4cc(=O)cc(N5CCOCC5)o4)c2S3)C[C@H](C)O1 [KU-60019] | 0.886
COc1ccc(-c2ccc3c(N4CCOCC4)nc(N4C[C@@H](C)O[C@@H](C)C4)nc3n2)cc1CO [KU-0063794] | −1.551
O=C(c1ccc(/C=C/c2n[nH]c3ccccc23)cc1)N1CCNCC1 [KW-2449] | −0.0564
COc1cc2nccc(Oc3ccc(NC(=O)Nc4ccc(F)cc4F)c(F)c3)c2cc1OC [Ki8751] | 0.1011
COc1ccccc1-c1cc(Nc2cccc(CS(N)(=O)=O)c2)ncn1 [LDC000067] | −0.05049
O=c1cc(N2CCOCC2)oc2c(-c3ccccc3)cccc12 [LY294002] | 0.5337
O=C1NC(=O)C(c2cnc3ccccn23)=C1c1cn2c3c(cc(F)cc13)CN(C(=O)N1CCCCC1)CC2 [LY2090314] | 1.91
Cc1cnc(NC(=O)Nc2cc(Br)c(C)cc2OC[C@@H]2CNCCO2)cn1 [LY2603618] | −0.1739
CS(=O)(=O)CCNCc1ccc(-c2ccc3ncnc(Nc4ccc(OCc5cccc(F)c5)c(Cl)c4)c3c2)o1 [Lapatinib (GW-572016) Ditosylate, lapatinib, reference compound] | 0.212
CS(=O)(=O)CCNCc1ccc(-c2ccc3ncnc(Nc4ccc(OCc5cccc(F)c5)c(Cl)c4)c3c2)o1 [Lapatinib] | 0.9499
COc1cc2nccc(Oc3ccc(NC(=O)NC4CC4)c(Cl)c3)c2cc1C(N)=O [Lenvatinib (E7080)] | −0.314

SMILES | log2fc
Cc1ccc(F)c(NC(=O)Nc2ccc(-c3cccc4[nH]nc(N)c34)cc2)c1 [Linifanib (ABT-869)] | −0.2483
C[C@]1(O)C[C@@H](c2nc(-c3ccc4ccc(-c5ccccc5)nc4c3)c3c(N)nccn32)C1 [Linsitinib (OSI-906)] | 0.08978
Cc1c(F)cc(C(=O)NC2CC2)cc1-c1ccc(C(=O)NCC(C)(C)C)cn1 [Losmapimod (GW856553X)] | −0.5236
COCCNCc1ccc(-c2cc3nccc(Oc4ccc(NC(=S)NC(=O)Cc5ccc(F)cc5)cc4F)c3s2)nc1 [MGCD-265] | 0.4311
Cl.Cl.NC1(c2ccc(-c3nc4ccn5c(=O)[nH]nc5c4cc3-c3ccccc3)cc2)CCC1 [MK-2206 2HCl] | −0.1575
CN(C[C@@H]1COCCO1)S(=O)(=O)Nc1ccc2ccc3ncc(-c4cnn(C)c4)cc3c(=O)c2c1 [MK-2461] | 0.09192
O=C(O)[C@]1(Cc2cccc(Nc3nccs3)n2)CC[C@@H](Oc2cccc(Cl)c2F)CC1 [MK-5108 (VX-689)] | −0.2429
O=C(c1cccc(Cl)c1F)N1CCN(Cc2cccc(Nc3nccs3)n2)CC1 [MK-8745] | −0.3779
C[C@@H](NC(=O)c1ncnc(N)c1Cl)c1ncc(C(=O)Nc2cc(C(F)(F)F)c(Cl)cn2)s1 [MLN2480] | 0.5916
O=C(O)c1ccc(Nc2ncc3c(n2)-c2ccc(Cl)cc2C(c2c(F)cccc2F)=NC3)cc1 [MLN8054] | 0.07059
Cc1ccc(NC(=O)c2ccc(CN3CCN(C)CC3)cc2)cc1Nc1nc(-c2cccnc2)cs1 [Masitinib (AB1010)] | 0.1874
CNC(=O)c1nn(C)c2c1C(C)(C)Cc1cnc(Nc3ccc(N4CCN(C)CC4)cc3)nc1-2 [Milciclib (PHA-848125)] | 0.9986
N#CCNC(=O)c1ccc(-c2ccnc(Nc3ccc(N4CCOCC4)cc3)n2)cc1 [Momelotinib (CYT387)] | −1.441
CC1(C)CNc2cc(NC(=O)c3cccnc3NCc3ccncc3)ccc21.O=P(O)(O)O.O=P(O)(O)O [Motesanib Diphosphate (AMG-706)] | −0.1118
FC(F)(F)c1ccc(/C=C/c2nc(COc3ccc(CCCCn4ccnn4)cc3)co2)cc1 [Mubritinib (TAK 165)] | 0.225
Nc1nc(N)c(N=O)c(OCC2CCCCC2)n1 [NU6027] | −0.2463
Nc1ncnc2c1c(-c1cccc(OCc3ccccc3)c1)cn2C1CC(CN2CCC2)C1 (stereo not shown) [NVP-AEW541] | 0.2179
Cc1ccc(C(=O)Nc2cccc(C(F)(F)F)c2)cc1Nc1nc(-c2cccnc2)nc2c1cnn2C [NVP-BHG712] | 0.02396
Fc1cc(-c2cccc3ncc(-c4cnn(C5CCNCC5)c4)nc23)cc(F)c1CN1CCOCC1 [NVP-BSK805 2HCl] | −0.09499
Cn1cc(-c2ccc3ncc(Cc4ccc5ncccc5c4)n3n2)cn1 [NVP-BVU972] | 0.5846
Cc1cn(-c2cc(NC(=O)c3ccc(C)c(Nc4nccc(-c5cccnc5)n4)c3)cc(C(F)(F)F)c2)cn1 [Nilotinib (AMN-107)] | 0.331
COC(=O)c1ccc2c(c1)NC(=O)/C2=C(\Nc1ccc(N(C)C(=O)CN2CCN(C)CC2)cc1)c1ccccc1 [Nintedanib (BIBF 1120)] | 0.7859
COc1cccc2cc(-c3nc([C@H]4CC[C@H](C(=O)O)CC4)n4ncnc(N)c34)[nH]c12 [OSI-027] | −1.494
C#Cc1cccc(Nc2ncnc3cc(OCCOC)c(OCCO)cc23)c1.Cl [OSI-420, desmethyl erlotinib, reference compound] | −0.04846
O=C(Nc1ccc(OC(F)(F)F)cc1)c1sccc1NCc1ccnc2ccccc12 [OSI-930] | −0.2273
NCC(=O)Nc1ccc(-n2nc(C(F)(F)F)cc2-c2ccc3c(ccc4ccccc43)c2)cc1 [OSU-03012 (AR-12)] | 0.7911

Reference: US12195490B2, “STRAD-binding agents and uses thereof” (The Regents of the University of California, priority 2020, dated 2025)
